The record followed here is patent publication US12479830B2, “Homopiperazinyl and homopiperidinyl quinazolin-4(3H)-one derivatives having multimodal activity against pain” (ESTEVE PHARMACEUTICALS, S.A., priority 2019, dated 2025).

The structures appear in SMILES notation. A value given as a limit tells only on which side of the number the result lay.

Test [1] has as its target Human α2δ-1 subunit of Cav2.2 calcium channel (Homo sapiens, UniProt P54289). The test is described as follows: Human α2δ-1 subunit of Cav2.2 calcium channel assay ([3H]-gabapentin binding). The conditions noted are these: binding to the α2δ-1 subunit of voltage-gated calcium channels, expressed as Ki class; + also covers inhibition between 1% and 50%. In short, it runs like this: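 Affinity (Ki, five concentrations) or % inhibition at 1 or 10 μM, from displacement of 15 nM [3H]-gabapentin on human α2δ-1 membranes. Incubation 60 min, 27° C., Hepes-KOH 10 mM pH 7.4; 10 μM pregabalin defined non-specific binding; bound radioactivity counted after GF/C filtration.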

For test [2], the target named is T1, Human σ1 receptor (Homo sapiens, UniProt Q99720).
T1 construct: expressed in transfected cells; host or cells: HEK-293
T1 sequence (Q99720 whole entry): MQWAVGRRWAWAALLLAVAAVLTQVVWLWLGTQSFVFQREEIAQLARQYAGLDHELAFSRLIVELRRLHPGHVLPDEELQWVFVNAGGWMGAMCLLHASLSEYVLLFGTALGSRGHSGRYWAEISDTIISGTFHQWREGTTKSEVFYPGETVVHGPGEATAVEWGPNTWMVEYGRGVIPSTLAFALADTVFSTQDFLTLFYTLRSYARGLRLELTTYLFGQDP
The test can be described thus: Human σ1 receptor radioligand assay ([3H](+)-pentazocine binding). The conditions noted are these: binding to the σ1 receptor, expressed as Ki class; + also covers inhibition between 1% and 50%. The gist of the method: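 Ki was derived from five test concentrations, or % inhibition was measured at a single 1 or 10 μM dose, against 5 nM [3H](+)-pentazocine. Incubation was 120 min at 37° C in 50 mM Tris-HCl pH 8 with 7 μg HEK-293 membranes, and 10 μM haloperidol set non-specific binding. Bound radioactivity was counted after filtration.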

Sequence of Human α2δ-1 subunit of Cav2.2 calcium channel (P54289 25-1103): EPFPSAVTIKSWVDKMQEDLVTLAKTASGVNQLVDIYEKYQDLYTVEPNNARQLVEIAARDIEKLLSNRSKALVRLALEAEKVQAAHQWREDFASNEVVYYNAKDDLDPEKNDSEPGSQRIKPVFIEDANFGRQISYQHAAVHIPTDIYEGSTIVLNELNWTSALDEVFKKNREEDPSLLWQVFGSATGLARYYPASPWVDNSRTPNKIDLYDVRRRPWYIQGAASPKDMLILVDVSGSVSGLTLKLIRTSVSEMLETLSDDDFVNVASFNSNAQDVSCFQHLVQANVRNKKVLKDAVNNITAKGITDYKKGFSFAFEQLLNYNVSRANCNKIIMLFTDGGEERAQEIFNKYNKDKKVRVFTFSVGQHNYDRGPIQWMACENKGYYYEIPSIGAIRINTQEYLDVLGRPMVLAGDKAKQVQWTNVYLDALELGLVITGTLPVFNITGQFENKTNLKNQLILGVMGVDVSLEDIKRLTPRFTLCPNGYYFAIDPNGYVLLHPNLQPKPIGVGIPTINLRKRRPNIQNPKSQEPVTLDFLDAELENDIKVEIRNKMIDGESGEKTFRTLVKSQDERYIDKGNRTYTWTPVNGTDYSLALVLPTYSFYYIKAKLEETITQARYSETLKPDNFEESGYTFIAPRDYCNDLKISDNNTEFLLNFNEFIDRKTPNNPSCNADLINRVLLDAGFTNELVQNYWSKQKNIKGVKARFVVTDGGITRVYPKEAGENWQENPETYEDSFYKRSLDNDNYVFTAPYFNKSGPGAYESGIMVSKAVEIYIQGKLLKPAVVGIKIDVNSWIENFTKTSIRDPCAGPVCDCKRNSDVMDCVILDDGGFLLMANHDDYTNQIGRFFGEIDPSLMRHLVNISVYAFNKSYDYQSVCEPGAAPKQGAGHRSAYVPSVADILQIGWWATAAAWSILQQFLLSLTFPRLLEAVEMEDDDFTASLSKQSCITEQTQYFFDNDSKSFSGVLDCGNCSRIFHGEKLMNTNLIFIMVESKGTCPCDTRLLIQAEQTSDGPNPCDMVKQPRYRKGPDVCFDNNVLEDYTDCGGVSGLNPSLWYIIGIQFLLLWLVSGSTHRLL

Consider `CCC[C@@H](c1nc2cc(F)c(Br)cc2c(=O)n1CC)N1CCN(C)C[C@H](C)C1` [Example 128, 6-bromo-2-((S)-1-((S)-4,6-dimethyl-1,4-diazepan-1-yl)butyl)-3-ethyl-7-fluoroquinazolin-4(3H)-one], for which the Ki (as a rule, the dissociation constant of the complex between target and ligand, obtained from inhibition or displacement) in test [1] is greater than 5 µM; in test [2], greater than 1 µM.
In the same order, the values of `CCC[C@@H](c1nc2cc(F)c(Br)cc2c(=O)n1CC)N1CCN(C)C[C@@H](C)C1` [Example 129, 6-bromo-2-((S)-1-((R)-4,6-dimethyl-1,4-diazepan-1-yl)butyl)-3-ethyl-7-fluoroquinazolin-4(3H)-one] are 0.5 to 5 µM and greater than 1 µM.
On the same counts, the results for `CCC[C@H](c1nc2cc(F)c(Br)cc2c(=O)n1CC)N1CCN(C)C[C@@H](C)C1` [Example 130, 6-bromo-2-((R)-1-((R)-4,6-dimethyl-1,4-diazepan-1-yl)butyl)-3-ethyl-7-fluoroquinazolin-4 (3H)-one] are less than 0.5 µM and 0.5 to 1 µM.
In the same order, the values of `CCC[C@H](c1nc2cc(Cl)c(Cl)cc2c(=O)n1CC)N1CCN(C)C[C@H](C)C1` [Example 131, 6,7-Dichloro-2-((R)-1-((S)-4,6-dimethyl-1,4-diazepan-1-yl)butyl)-3-ethylquinazolin-4(3H)-one] are less than 0.5 µM and less than 0.5 µM.
Regarding `CCC[C@H](c1nc2cc(Cl)c(Cl)cc2c(=O)n1CC)N1CCN(C)C[C@@H](C)C1` [Example 132, 6,7-dichloro-2-((R)-1-((R)-4,6-dimethyl-1,4-diazepan-1-yl)butyl)-3-ethylquinazolin-4(3H)-one], the inhibitory constant (Ki) in test [1] and in test [2] was less than 0.5 µM in each case.
Turning to `CCC[C@@H](c1nc2cc(Cl)c(Cl)cc2c(=O)n1CC)N1CCN(C)C[C@H](C)C1` [Example 133, 6,7-dichloro-2-((S)-1-((S)-4,6-dimethyl-1,4-diazepan-1-yl)butyl)-3-ethylquinazolin-4(3H)-one], the inhibition constant Ki was greater than 5 µM in test [1] and greater than 1 µM in test [2].
Consider `CCC[C@@H](c1nc2cc(Cl)c(Cl)cc2c(=O)n1CC)N1CCN(C)C[C@@H](C)C1` [Example 134, 6,7-dichloro-2-((S)-1-((R)-4,6-dimethyl-1,4-diazepan-1-yl)butyl)-3-ethylquinazolin-4(3H)-one], for which the Ki in test [1] was greater than 5 µM; in test [2], 0.5 to 1 µM.
In the same order, the values of `CCC[C@H](c1nc2cc(F)c(Cl)cc2c(=O)n1CC)N1CCN(C)C[C@H](C)C1` [Example 135, 6-Chloro-2-((R)-1-((S)-4,6-dimethyl-1,4-diazepan-1-yl)butyl)-3-ethyl-7-fluoroquinazolin-4(3H)-one] are less than 0.5 µM and less than 0.5 µM.
In the same order, the values of `CCC[C@H](c1nc2cc(F)c(Cl)cc2c(=O)n1CC)N1CCN(C)C[C@@H](C)C1` [Example 136, 6-chloro-2-((R)-1-((R)-4,6-dimethyl-1,4-diazepan-1-yl)butyl)-3-ethyl-7-fluoroquinazolin-4(3H)-one] are less than 0.5 µM and 0.5 to 1 µM.
In the same order, the values of `CCC[C@@H](c1nc2cc(F)c(Cl)cc2c(=O)n1CC)N1CCN(C)C[C@H](C)C1` [Example 137, 6-chloro-2-((S)-1-((S)-4,6-dimethyl-1,4-diazepan-1-yl)butyl)-3-ethyl-7-fluoroquinazolin-4(3H)-one] are greater than 5 µM and 0.5 to 1 µM.
Take `CCC[C@@H](c1nc2cc(F)c(Cl)cc2c(=O)n1CC)N1CCN(C)C[C@@H](C)C1` [Example 138, 6-chloro-2-((S)-1-((R)-4,6-dimethyl-1,4-diazepan-1-yl)butyl)-3-ethyl-7-fluoroquinazolin-4 (3H)-one]: the Ki was greater than 5 µM in test [1] and 0.5 to 1 µM in test [2].
Regarding `CCC[C@H](c1nc2ccc(Br)cc2c(=O)n1CC)N1CCCN[C@H](C)C1` [Example 139, 6-Bromo-3-ethyl-2-((R)-1-((R)-3-methyl-1,4-diazepan-1-yl)butyl)quinazolin-4(3H)-one], the figures for the Ki in test [1] and in test [2] were less than 0.5 µM and 0.5 to 1 µM, respectively.
On the same counts, the results for `CCC[C@@H](c1nc2ccc(Br)cc2c(=O)n1CC)N1CCCN[C@@H](C)C1` [Example 140, 6-bromo-3-ethyl-2-((S)-1-((S)-3-methyl-1,4-diazepan-1-yl)butyl)quinazolin-4(3H)-one] are greater than 5 µM and greater than 1 µM.
`CCC[C@@H](c1nc2ccc(Br)cc2c(=O)n1CC)N1CCCN[C@H](C)C1` [Example 141, 6-bromo-3-ethyl-2-((S)-1-((R)-3-methyl-1,4-diazepan-1-yl)butyl)quinazolin-4(3H)-one]: the Ki in test [1] was greater than 5 µM; in test [2], 0.5 to 1 µM.
In the same order, the values of `CCC[C@H](c1nc2ccc(Br)cc2c(=O)n1CC)N1CCCN[C@@H](C)C1` [Example 142, 6-bromo-3-ethyl-2-((R)-1-((S)-3-methyl-1,4-diazepan-1-yl)butyl)quinazolin-4(3H)-one] are less than 0.5 µM and greater than 1 µM.
As for `CCC[C@H](c1nc2ccc(F)cc2c(=O)n1CC)N1CCCN[C@H](C)C1` [Example 143, 3-Ethyl-6-fluoro-2-((R)-1-((R)-3-methyl-1,4-diazepan-1-yl)butyl)quinazolin-4(3H)-one], the Ki in test [1] and in test [2] was less than 0.5 µM in each case.
Regarding `CCC[C@@H](c1nc2ccc(F)cc2c(=O)n1CC)N1CCCN[C@@H](C)C1` [Example 144, 3-ethyl-6-fluoro-2-((S)-1-((S)-3-methyl-1,4-diazepan-1-yl)butyl)quinazolin-4(3H)-one], the Ki in test [1] was greater than 5 µM; in test [2], greater than 1 µM.
As for `CCC[C@H](c1nc2ccc(F)cc2c(=O)n1CC)N1CCCN[C@@H](C)C1` [Example 145, 3-ethyl-6-fluoro-2-((R)-1-((S)-3-methyl-1,4-diazepan-1-yl)butyl)quinazolin-4(3H)-one], the Ki in test [1] is less than 0.5 µM; in test [2], greater than 1 µM.
As to `CCC[C@@H](c1nc2ccc(F)cc2c(=O)n1CC)N1CCCN[C@H](C)C1` [Example 146], the inhibitory constant (Ki) in test [1] is greater than 5 µM; in test [2] it was greater than 1 µM.
On the same counts, the results for `CCC[C@H](c1nc2ccc(Cl)cc2c(=O)n1C)N1CCCN[C@H](C)C1` [Example 147, 6-Chloro-3-methyl-2-((R)-1-((R)-3-methyl-1,4-diazepan-1-yl)butyl)quinazolin-4(3H)-one] are less than 0.5 µM and less than 0.5 µM.
For `CCC[C@H](c1nc2ccc(Cl)cc2c(=O)n1C)N1CCCN[C@@H](C)C1` [Example 148, 6-chloro-3-methyl-2-((R)-1-((S)-3-methyl-1,4-diazepan-1-yl)butyl)quinazolin-4(3H)-one], the inhibition constant (Ki) in test [1] was less than 0.5 µM; in test [2], greater than 1 µM.
`CCC[C@@H](c1nc2ccc(Cl)cc2c(=O)n1C)N1CCCN[C@@H](C)C1` [Example 149, 6-chloro-3-methyl-2-((S)-1-((S)-3-methyl-1,4-diazepan-1-yl)butyl)quinazolin-4(3H)-one]: the Ki in test [1] was greater than 5 µM; in test [2], less than 0.5 µM.
`CCC[C@@H](c1nc2ccc(Cl)cc2c(=O)n1C)N1CCCN[C@H](C)C1` [Example 150, 6-chloro-3-methyl-2-((S)-1-((R)-3-methyl-1,4-diazepan-1-yl)butyl)quinazolin-4(3H)-one]: the inhibition constant Ki in test [1] is greater than 5 µM; in test [2], 0.5 to 1 µM.
In the same order, the values of `CCC[C@H](c1nc2ccc(Br)cc2c(=O)n1CC)N1CCCN(C)CC1` [Example 151, (R)-6-Bromo-3-ethyl-2-(1-(4-methyl-1,4-diazepan-1-yl)butyl)quinazolin-4(3H)-one] are less than 0.5 µM and less than 0.5 µM.
Regarding `CCC[C@@H](c1nc2ccc(Br)cc2c(=O)n1CC)N1CCCN(C)CC1` [Example 152, (S)-6-bromo-3-ethyl-2-(1-(4-methyl-1,4-diazepan-1-yl)butyl)quinazolin-4(3H)-one], the inhibition constant (Ki) is greater than 5 µM in test [1] and 0.5 to 1 µM in test [2].
On the same counts, the results for `CCC[C@H](c1nc2ccc(Br)cc2c(=O)n1CC)N1CCCN(CC)CC1` [Example 153, (R)-6-Bromo-3-ethyl-2-(1-(4-ethyl-1,4-diazepan-1-yl)butyl)quinazolin-4(3H)-one] are less than 0.5 µM and less than 0.5 µM.
As to `CCC[C@@H](c1nc2ccc(Br)cc2c(=O)n1CC)N1CCCN(CC)CC1` [Example 154, (S)-6-bromo-3-ethyl-2-(1-(4-ethyl-1,4-diazepan-1-yl)butyl)quinazolin-4(3H)-one], the Ki was greater than 5 µM in test [1] and less than 0.5 µM in test [2].
In the same order, the values of `CCC[C@H](c1nc2cc(F)c(Br)cc2c(=O)n1CC)N1CCCN(C)CC1` [Example 155, (R)-6-Bromo-3-ethyl-7-fluoro-2-(1-(4-methyl-1,4-diazepan-1-yl)butyl)quinazolin-4(3H)-one] are greater than 5 µM and greater than 1 µM.
In the same order, the values of `CCC[C@@H](c1nc2cc(F)c(Br)cc2c(=O)n1CC)N1CCCN(C)CC1` [Example 156, (S)-6-bromo-3-ethyl-7-fluoro-2-(1-(4-methyl-1,4-diazepan-1-yl)butyl)quinazolin-4(3H)-one] are greater than 5 µM and 0.5 to 1 µM.
On the same counts, the results for `CCC[C@H](c1nc2cc(F)c(Br)cc2c(=O)n1CC)N1CCCNCC1` [Example 157, (R)-2-(1-(1,4-Diazepan-1-yl)butyl)-6-bromo-3-ethyl-7-fluoroquinazolin-4(3H)-one] are less than 0.5 µM and greater than 1 µM.
For the molecule `CCC[C@@H](c1nc2cc(F)c(Br)cc2c(=O)n1CC)N1CCCNCC1` [Example 158, (S)-2-(1-(1,4-diazepan-1-yl)butyl)-6-bromo-3-ethyl-7-fluoroquinazolin-4(3H)-one], the Ki in test [1] was greater than 5 µM; in test [2], greater than 1 µM.
